These results are taken from US4261994A, “1,2,4-Oxadiazole derivatives, their preparation and pharmaceutical use” (Synthelabo, priority 1977, dated 1981).

Read-outs that look alike come from different tables or passages of the source.

Data set [1] concerns spontaneously hypertonic male rats. Description: Anti-hypertensive activity in spontaneously hypertonic male rats (method of Gerold and Tschirky), systolic pressure by pulse at caudal artery. Type of data set: in vivo. Particulars: Rattus norvegicus, po; for change in vivo at 20 mg/kg: administered dose 20 mg/kg orally; for change in vivo at 5 mg/kg: administered dose 5 mg/kg orally. As to the method:
The anti-hypertensive activity is evaluated on spontaneously hypertonic male rats in accordance with the method of Gerold and Tschirky (Arzneim. Forsch, 1968, 18, 1,285). The systolic pressure is measured by taking the pulse at the level of the caudal artery. […]

The nature of data set [2]: Toxicity, 50% lethal dose, intraperitoneal administration to CD1 male rats. Particulars: rat, in vivo, ip; intraperitoneally to rats, fasted 18 hours; read-out: 50% lethal dose (LD 50). As to the method: The toxicity of the compounds (I) was determined by intraperitoneal administration to CD1 (Charles River) male rats weighing 100 to 120 g, which had fasted for 18 hours.

Where [3] appears, read: 4 hours, read-out: Anti-hypertensive activity %, 4 hours.
The mark [4] stands for this setting: 24 hours, read-out: Anti-hypertensive activity %, 24 hours.

Turning to `CN(C)c1noc(Cc2c(Cl)cccc2Cl)n1` [Compound 1], the change in vivo at 20 mg/kg is -33% in data set [1] (setting [3]) and -14% in data set [1] (setting [4]).

Regarding `CNc1noc(Cc2c(Cl)cccc2Cl)n1` [Compound 2, 3-Methylamino-5-(2,6-dichlorobenzyl)-1,2,4-oxadiazole], the change in vivo at 20 mg/kg was -18% in data set [1] (setting [3]) and -9% in data set [1] (setting [4]).

On to `CN(C)CCCNc1noc(Cc2c(Cl)cccc2Cl)n1` [Compound 6], for which the LD50 in data set [2] is below 250 mg/kg. Also, the values for the change in vivo at 20 mg/kg in data set [1] (setting [3]) and in data set [1] (setting [4]) were -5% and -7%, respectively.

Regarding `CN(C)C=Nc1noc(Cc2c(Cl)cccc2Cl)n1` [Compound 9], the LD50 in data set [2] is above 500 mg/kg. Further, the change in vivo at 20 mg/kg in data set [1] (setting [3]) is -29%; in data set [1] (setting [4]), -15%.

Regarding `CN1CCN(C=Nc2noc(Cc3c(Cl)cccc3Cl)n2)CC1` [Compound 10], in data set [2], the LD50 was below 500 mg/kg. The change in vivo at 20 mg/kg in data set [1] (setting [3]) is -29%.

Take `OCCN(C=Nc1noc(Cc2c(Cl)cccc2Cl)n1)CCO` [Compound 11, 3-[N,N-Bis-(2-hydroxyethyl)-formamidino]-5-(2,6-dichlorobenzyl)-1,2,4-oxadiazole]: the LD50 in data set [2] was at least 500 mg/kg. For the same compound, the change in vivo at 20 mg/kg in data set [1] (setting [3]) was -32%.

With `Cc1cccc(C)c1Cc1nc(N=CN(C)C)no1` [Compound 14], the change in vivo at 20 mg/kg in data set [1] (setting [3]) is -22%; in data set [1] (setting [4]), -13%.

Take `CN(C)C=Nc1noc(Cc2c(F)cccc2Cl)n1` [Compound 15]: the LD50 in data set [2] is at most 500 mg/kg. Besides, the change in vivo at 5 mg/kg is -26% in data set [1] (setting [3]) and -6% in data set [1] (setting [4]).

On to `Nc1noc(Cc2c(F)cccc2F)n1` [Compound 16], for which the change in vivo at 5 mg/kg in data set [1] (setting [3]) is -18%; in data set [1] (setting [4]) it was -1%.

As to `Nc1noc(Cc2c(Cl)cccc2Cl)n1` [Compound 18, 3-Amino-5-(2,6-dichlorobenzyl)-1,2,4-oxadiazole], the LD50 in data set [2] worked out at 250 mg/kg. The change in vivo at 5 mg/kg in data set [1] (setting [3]) is -18%; in data set [1] (setting [4]) it was -3%.

`Nc1noc(Cc2cc(Cl)ccc2Cl)n1` [Compound 19]: the LD50 in data set [2] is at least 500 mg/kg. Also, the change in vivo at 5 mg/kg in data set [1] (setting [3]) is -18%; in data set [1] (setting [4]), -3%.
